Measured values: patent US9663530B2, “5-oxa-2-azabicyclo[2.2.2]OCTAN-4-yl and 5-oxa-2-azabicyclo[2.2.1]heptan-4-yl derivatives” (Hoffmann-La Roche Inc., priority 2014, dated 2017)

Key:
rat TAAR1 = rat TAAR1 (Rattus norvegicus (Rat), UniProt Q923Y9); test: Radioligand binding assay on rat TAAR1; details: rat TAAR1 (second value of the cell); membranes of HEK-293 cells stably expressing rat TAAR1; read-out: Ki (μM) mouse/rat
Experimental: (§1) Construction of TAAR Expression Plasmids and Stably Transfected Cell Lines
(§2) For the construction of expression plasmids the coding sequences of human, rat and mouse TAAR 1 were amplified from genomic DNA essentially as described by Lindemann et al.. The Expand High Fidelity PCR System (Roche Diagnostics) was used with 1.5 mM Mg^2+ and purified PCR products were cloned into pCR2.1-TOPO cloning vector (Invitrogen) following the instructions of the manufacturer. PCR products were subcloned into the pIRESneo2 vector (BD Clontech, Palo Alto, Calif.), and expression vectors were sequence verified before introduction in cell lines.
(§3) HEK293 cells (ATCC # CRL-1573) were cultured essentially as described by Lindemann et al. (2005). For the generation of stably transfected cell lines HEK293 cells were transfected with the pIRESneo2 expression plasmids containing the TAAR coding sequences (described above) with Lipofectamine 2000 (Invitrogen) according to the instructions of the manufacturer, and 24 hrs post transfection the culture medium was supplemented with 1 mg/ml G418 (Sigma, Buchs, Switzerland). After a culture period of about 10 d clones were isolated, expanded and tested for responsiveness to trace amines (all compounds purchased from Sigma) with the cAMP Biotrak Enzyme immunoassay (EIA) System (Amersham) following the non-acetylation EIA procedure provided by the manufacturer.
Radioligand Binding Assay on Rat TAAR1
(§4) Membrane Preparation and Radioligand Binding.
HEK-293 cells stably expressing rat TAAR1 were maintained at 37° C. and 5% CO2 in DMEM high glucose medium, containing fetal calf serum (10%, heat inactivated for 30 min at 56° C.), penicillin/streptomycin (1%), and 375 μg/ml geneticin (Gibco). Cells were released from culture flasks using trypsin/EDTA, harvested, washed twice with ice-cold PBS (without Ca^2+ and Mg^2+), pelleted at 1,000 rpm for 5 min at 4° C., frozen and stored at −80° C. Frozen pellets were suspended in 20 ml HEPES-NaOH (20 mM, pH 7.4) containing 10 mM EDTA and homogenized with a Polytron (PT 6000, Kinematica) at 14,000 rpm for 20 s. The homogenate was centrifuged at 48,000×g for 30 min at 4° C. Subsequently, the supernatant was removed and discarded, and the pellet resuspended in 20 ml HEPES-NaOH (20 mM, pH 7.4) containing 0.1 mM EDTA using the Polytron (20 s at 14,000 rpm). This procedure was repeated and the final pellet resuspended in HEPES-NaOH containing 0.1 mM EDTA and homogenized using the Polytron. Typically, aliquots of 2 ml membrane portions were stored at −80° C. With each new membrane batch the dissociation constant (Kd) was determined via a saturation curve. […] Nonspecific binding was defined as the amount of ^3[H]-(S)-4-[(ethyl-phenyl-amino)-methyl]-4,5-dihydro-oxazol-2-ylamine bound in the presence of 10 μM unlabeled ligand. All compounds were tested at a broad range of concentrations ([…]) in duplicates. The test compounds (20 […]μl/well) were transferred into a 96 deep well plate (TreffLab), and 180 μl of HEPES-NaOH (20 mM, pH 7.4) containing MgCl2 (10 mM) and CaCl2 (2 mM) (binding buffer), 300 μl of the radioligand ^3[H]-(S)-4-[(ethyl-phenyl-amino)-methyl]-4,5-dihydro-oxazol-2-ylamine at a concentration of 3.3×Kd in nM and 500 μl of the membranes (resuspended at 50 μg protein per ml) added. The 96 deep well plates were incubated for 1 hr at 4° C. Incubations were terminated by rapid filtration through Unifilter-96 plates (Packard Instrument Company) and glass filters GF/C (Perkin Elmer) presoaked for 1 hr in polyethylenimine (0.3%) and washed 3 times with 1 ml of cold binding buffer. After addition of 45 μl of Microscint 40 (PerkinElmer) the Unifilter-96 plate was sealed and after 1 hr the ratioactivity counted using a TopCount Microplate Scintillation Counter (Packard Instrument Company).

mouse TAAR1 = mouse TAAR1 (Mus musculus (Mouse), UniProt Q923Y8); test: Radioligand binding assay on mouse TAAR1; details: mouse TAAR1 (first value of the cell); membranes of HEK-293 cells stably expressing mouse TAAR1; read-out: Ki (μM) mouse/rat
Sequence of mouse TAAR1 (Q923Y8 whole entry): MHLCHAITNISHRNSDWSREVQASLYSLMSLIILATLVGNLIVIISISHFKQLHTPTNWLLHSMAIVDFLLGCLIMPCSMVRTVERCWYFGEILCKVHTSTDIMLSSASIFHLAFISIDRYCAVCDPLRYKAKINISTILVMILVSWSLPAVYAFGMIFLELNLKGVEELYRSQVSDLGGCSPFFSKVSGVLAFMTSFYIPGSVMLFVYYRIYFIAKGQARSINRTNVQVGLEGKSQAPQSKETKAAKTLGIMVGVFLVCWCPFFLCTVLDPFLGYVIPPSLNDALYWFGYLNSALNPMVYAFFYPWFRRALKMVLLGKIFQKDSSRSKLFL
Experimental: as §1, §2, §3
Radioligand Binding Assay on Mouse TAAR1
as §4
HEK-293 cells stably expressing mouse TAAR1 were maintained at 37° C. and 5% CO2 in DMEM high glucose medium, containing fetal calf serum (10%, heat inactivated for 30 min at 56° C.), penicillin/streptomycin (1%), and 375 μg/ml geneticin (Gibco). Cells were released from culture flasks using trypsin/EDTA, harvested, washed twice with ice-cold PBS (without Ca^2+and Mg^2+), pelleted at 1,000 rpm for 5 min at 4° C., frozen and stored at −80° C. Frozen pellets were suspended in 20 ml HEPES-NaOH (20 mM, pH 7.4) containing 10 mM EDTA and homogenized with a Polytron (PT 6000, Kinematica) at 14,000 rpm for 20 s. The homogenate was centrifuged at 48,000×g for 30 min at 4° C. Subsequently, the supernatant was removed and discarded, and the pellet resuspended in 20 ml HEPES-NaOH (20 mM, pH 7.4) containing 0.1 mM EDTA using the Polytron (20 s at 14,000 rpm). This procedure was repeated and the final pellet resuspended in HEPES-NaOH containing 0.1 mM EDTA and homogenized using the Polytron. Typically, aliquots of 2 ml membrane portions were stored at −80° C. With each new membrane batch the dissociation constant (Kd) was determined via a saturation curve. The TAAR1 radioligand ^3[H]-(S)-4-[(ethyl-phenyl-amino)-methyl]-4,5-dihydro-oxazol-2-ylamine (described in WO 2008/098857) was used at a concentration equal to the calculated Kd value, that was usually around 0.7 nM, resulting in the binding of approximately 0.5% of the radioligand and a specific binding representing approximately 70% of the total binding. Nonspecific binding was defined as the amount of ^3[H]-(S)-4-[(ethyl-phenyl-amino)-methyl]-4,5-dihydro-oxazol-2-ylamine bound in the presence of 10 μM unlabeled ligand. All compounds were tested at a broad range of concentrations ([…]) in duplicates. The test compounds (20 […]μl/well) were transferred into a 96 deep well plate (TreffLab), and 180 μl of HEPES-NaOH (20 mM, pH 7.4) containing MgCl2 (10 mM) and CaCl2 (2 mM) (binding buffer), 300 μl of the radioligand ^3[H]-(S)-4-[(ethyl-phenyl-amino)-methyl]-4,5-dihydro-oxazol-2-ylamine at a concentration of 3.3×Kd in nM and 500 μl of the membranes (resuspended at […]) added. The 96 deep well plates were incubated for 1 hr at 4° C. Incubations were terminated by rapid filtration through Unifilter-96 plates (Packard Instrument Company) and glass filters GF/C (Perkin Elmer) presoaked for 1 hr in polyethylenimine (0.3%) and washed 3 times with 1 ml of cold binding buffer. […]

Sequence of rat TAAR1 (Q923Y9 whole entry): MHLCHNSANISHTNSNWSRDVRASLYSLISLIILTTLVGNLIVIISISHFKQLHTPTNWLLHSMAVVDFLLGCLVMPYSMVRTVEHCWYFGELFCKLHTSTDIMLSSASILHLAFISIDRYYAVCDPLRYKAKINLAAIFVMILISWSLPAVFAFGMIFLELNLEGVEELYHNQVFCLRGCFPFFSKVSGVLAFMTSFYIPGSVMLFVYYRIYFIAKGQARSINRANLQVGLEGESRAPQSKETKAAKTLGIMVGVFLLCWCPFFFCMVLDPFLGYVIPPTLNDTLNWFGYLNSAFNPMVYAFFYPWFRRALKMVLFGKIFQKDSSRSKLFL

Row | Ki (rat TAAR1) | Ki (mouse TAAR1) | Compound
1 | 1.16 µM | 0.295 µM | CC(C)c1cc(C(=O)Nc2ccc(C[C@@]34CN[C@@H](CO3)C4)cc2)[nH]n1 [Example 52, 3-Isopropyl-N-[4-[[(1R,4R)-5-oxa-2-azabicyclo[2.2.1]heptan-4-yl]methyl]phenyl]-1H-pyrazole-5-carboxamide]
2 | 0.063 µM | 0.334 µM | CCOc1ccc(C(=O)Nc2ccc(C[C@]34CN[C@H](CO3)C4)cc2)cc1 [Example 19, 4-Ethoxy-N-[4-[[(1 S,4S)-5-oxa-2-azabicyclo[2.2.1]heptan-4-yl]methyl]phenyl]benzamide]
3 | 0.273 µM | 0.0512 µM | O=C(Nc1ccc([C@]23CN[C@H](CO2)C3)cc1)c1ccnc(C(F)(F)F)c1 [Example 60, N-[4-[(1S,4R)-5-Oxa-2-azabicyclo[2.2.1]heptan-4-yl]phenyl]-2-(trifluoromethyl)pyridine-4-carboxamide]
4 | 0.881 µM | 5.8 µM | FC(F)(F)c1cnc(Nc2ccc(C[C@]34CN[C@H](CO3)C4)cc2)nc1 [Example 33, N-[4-[[(1S,4S)-5-Oxa-2-azabicyclo[2.2.1]heptan-4-yl]methyl]phenyl]-5-(trifluoromethyl)pyrimidin-2-amine]
5 | 0.0681 µM | 0.0119 µM | O=C(Nc1ccc(C23CCC(CO2)NC3)cc1)Nc1cccc(Cl)c1 (racemic) [Example 68, (RS)-1-(3-Chlorophenyl)-3-[4-(5-oxa-2-azabicyclo[2.2.2]octan-4-yl)phenyl]urea]
6 | 1.58 µM | 0.36 µM | O=C(Nc1ccc(C[C@]23CN[C@H](CO2)C3)cc1)c1cnc(C2CC2)nc1 [Example 28, 2-Cyclopropyl-N-[4-[[(1S,4S)-5-oxa-2-azabicyclo[2.2.1]heptan-4-yl]methyl]phenyl]pyrimidine-5-carboxamide]
7 | 1.91 µM | 0.0593 µM | O=C(Nc1ccc([C@@]23CN[C@@H](CO2)C3)cc1)c1ccnc(C(F)(F)F)c1 [Example 57]
8 | 0.0774 µM | 0.0054 µM | O=C(Nc1ccc([C@]23CN[C@H](CO2)C3)cc1)c1cccc(Cl)c1 [Example 59, 3-Chloro-N-[4-[(1S,4R)-5-oxa-2-azabicyclo[2.2.1]heptan-4-yl]phenyl]benzamide]
9 | 0.0822 µM | 1.35 µM | O=C(Nc1ccc(C[C@]23CN[C@H](CO2)C3)cc1)Nc1cccc(Cl)c1 [Example 2, 1-(3-Chlorophenyl)-3-[4-[[(1S,4S)-5-oxa-2-azabicyclo[2.2.1]heptan-4-yl]methyl]phenyl]urea]
10 | 0.964 µM | 0.0036 µM | O=C(Nc1ccc([C@@]23CN[C@@H](CO2)C3)cc1)c1cccc(Cl)c1 [Example 55, 3-Chloro-N-[4-[(1R,4S)-5-oxa-2-azabicyclo[2.2.1]heptan-4-yl]phenyl]benzamide]
11 | 0.0614 µM | 0.0086 µM | O=C(Nc1ccc(C[C@@]23CN[C@@H](CO2)C3)cc1)Nc1cccc(Cl)c1 [Example 24, 1-(3-Chlorophenyl)-3-[4-[[(1R,4R)-5-oxa-2-azabicyclo[2.2.1]heptan-4-yl]methyl]phenyl]urea]
12 | 0.277 µM | 0.476 µM | CCCc1n[nH]c(C(=O)Nc2ccc(C[C@]34CN[C@H](CO3)C4)cc2)c1Cl [Example 16, 4-Chloro-N-[4-[[(1 S,4S)-5-oxa-2-azabicyclo[2.2.1]heptan-4-yl]methyl]phenyl]-3-propyl-1H-pyrazole-5-carboxamide]
13 | 10 µM | 0.153 µM | CCc1ncc(C(=O)Nc2ccc(C34CCC(CO3)NC4)cc2)cn1 (racemic) [Example 35, (RS)-2-Ethyl-N-[4-(5-oxa-2-azabicyclo[2.2.2]octan-4-yl)phenyl]pyrimidine-5-carboxamide]
14 | 0.0209 µM | 0.365 µM | O=C(Nc1ccc(C[C@]23CN[C@H](CO2)C3)cc1)Nc1cccc(C(F)(F)F)c1 [Example 10, 1-[4-[[(1S,4S)-5-Oxa-2-azabicyclo[2.2.1]heptan-4-yl]methyl]phenyl]-3-[3-(trifluoromethyl)phenyl]urea]
15 | 0.0987 µM | 0.0522 µM | O=C(Nc1ccc(C[C@@]23CN[C@@H](CO2)C3)cc1)c1ccnc(C(F)(F)F)c1 [Example 40, N-[4-[[(1R,4R)-5-Oxa-2-azabicyclo[2.2.1]heptan-4-yl]methyl]phenyl]-2-(trifluoromethyl)pyridine-4-carboxamide]
16 | 0.229 µM | 0.112 µM | O=C(Nc1ccc(C[C@]23CN[C@H](CO2)C3)cc1)c1cccc(Cl)c1 [Example 17, 3-Chloro-N-[4-[[(1S,4S)-5-oxa-2-azabicyclo[2.2.1]heptan-4-yl]methyl]phenyl]benzamide]
17 | 0.328 µM | 0.0111 µM | FC(F)(F)c1ccc(Nc2ccc(C34CCC(CO3)NC4)cc2)nc1 (racemic) [Example 4, (RS)—N-[4-(5-Oxa-2-azabicyclo[2.2.2]octan-4-yl)phenyl]-5-(trifluoromethyl)pyridin-2-amine]
18 | 7.06 µM | 0.0219 µM | CCOc1ccc(C(=O)Nc2ccc(C34CCC(CO3)NC4)cc2)cn1 (racemic) [Example 12, (RS)-6-Ethoxy-N-[4-(5-oxa-2-azabicyclo[2.2.2]octan-4-yl)phenyl]pyridine-3-carboxamide]

Row | Compound | Ki (rat TAAR1) | Ki (mouse TAAR1)
19 | Clc1ccc(Nc2ccc(C34CCC(CO3)NC4)cc2)nc1 (racemic) [Example 3, (RS)-5-Chloro-N-[4-(5-oxa-2-azabicyclo[2.2.2]octan-4-yl)phenyl]pyridin-2-amine] | 2.46 µM | 0.0141 µM
